# Results taken from paper PMC12030497, “Plasma Protein Binding, Biostability, Metabolite Profiling, and CYP450 Phenotype of TPB15 Across Different Species: A Novel Smoothened Inhibitor for TNBC Therapy” (Pharmaceutics, 2025).
# Several values for one entry are separate records, joined by “and”; a condition that tells them apart may be missing. Equal values may be shown once.
# Columns and labels:
# CYP2A6 = target: T1, CYP2A6 (Homo sapiens, UniProt P11509); assay: TPB15 metabolism in human liver microsomes with CYP2A6 inhibitor; assay type: in vitro ADME; conditions: inhibition of TPB15 metabolism, HLM, 90 min, Coumarin 25 μM (CYP2A6)
# T1 construct: tissue Jiangsu Kejing Bio-Pharmaceutical Co., Ltd; host or cells: human liver microsomes
# T1 sequence (P11509 1-494): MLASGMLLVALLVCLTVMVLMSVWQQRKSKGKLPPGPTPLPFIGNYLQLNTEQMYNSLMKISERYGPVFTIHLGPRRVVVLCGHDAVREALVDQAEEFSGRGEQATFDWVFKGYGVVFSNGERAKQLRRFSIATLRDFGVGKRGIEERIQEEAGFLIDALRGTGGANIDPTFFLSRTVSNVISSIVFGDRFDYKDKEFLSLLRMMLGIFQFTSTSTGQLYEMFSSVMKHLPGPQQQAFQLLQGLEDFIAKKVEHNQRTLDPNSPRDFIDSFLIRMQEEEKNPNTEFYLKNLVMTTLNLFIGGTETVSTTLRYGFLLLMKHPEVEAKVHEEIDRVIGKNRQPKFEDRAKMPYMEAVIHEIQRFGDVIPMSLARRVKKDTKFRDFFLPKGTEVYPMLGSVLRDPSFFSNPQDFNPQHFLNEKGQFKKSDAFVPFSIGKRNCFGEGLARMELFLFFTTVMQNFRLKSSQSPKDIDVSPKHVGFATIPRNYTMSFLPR
# Experimental: (§1) The specific inhibitors of P450 were employed to evaluate the metabolic phenotype of TPB15, and the metabolic enzymes corresponding to each inhibitor and the system concentration are shown in Table 2. The specific procedure was as follows: a total of 0.5 μL of the substrate TPB15 and 0.5 μL of each specific inhibitor were mixed with 449 μL of human liver microsomes, and the mixture was incubated at 37 °C for 10 min. Subsequently, 50 μL of NADPH with a concentration of 10 mM in PBS were introduced to initiate the reaction. After 90 min, 50 μL of the reaction mixture were transferred to a 150 μL ice-cold methanol solution containing an internal standard to terminate the reaction. The mixture was vortexed for 2 min and then centrifuged at 4 °C at 14,800 rpm for 10 min. A volume of 130 μL of the supernatant was then transferred to a new EP tube, which was centrifuged again at 4 °C at 14,800 rpm for another 10 min. Finally, 5 μL of the supernatant were injected for the determination of substrate TPB15 concentration. Three parallel samples were prepared for each time point. The experiment also included a positive control group and a negative control group. In the positive control group, substrate TPB15 was incubated with human liver microsomes for 90 min without the addition of inhibitors.
# [1] = Metabolic stability in rat liver microsomes (RLM); assay type: in vitro ADME, Sprague-Dawley rat; conditions: RLM; for Concentration (ng/mL) of testosterone, Mean: positive control substrate
# Experimental: (§2) A total of 450 μL liver microsomes from mice, rat, dog, monkey, and human were spiked with 0.5 μL of TPB15 solution and pre-incubated in a water bath at 37 °C for 10 min. Following this, 50 μL of NADPH were added to initiate the reaction. The concentrations of each substance in the incubation system are detailed in Table 1. After initiating the metabolic reaction, 50 μL aliquots were removed at incubation times of 0, 5, 15, 30, 45, 60, and 90 min and transferred to 150 μL of icy methanol solution containing the internal standard to terminate the reaction. The mixtures were swirled for 2 min and then centrifuged at 14,800 rpm at 4 °C for 10 min. […] Three samples were prepared in parallel at each time point. Additionally, both a positive control group and a blank control group were established. In the positive control group, substrate testosterone was incubated with liver microsomes from mice, rat, dog, monkey, and human. The concentrations of substrate testosterone were measured at 0 and 90 min, and the changes in concentration before and after incubation were compared to confirm the activity of the liver microsomes. The blank control group included one drug-containing inactivated liver microsome sample for each species. The metabolic stability parameters, including in vitro elimination half-life (T1/2) and in vitro intrinsic clearance rate (CLint), were calculated based on this graph using the following formulas: in vitro elimination half-life (T1/2) = −0.693/k and in vitro intrinsic clearance rate (CLint) = (0.693 × incubation medium (mL))/(liver microsomes (mg) × T1/2).
# [2] = Metabolic stability in mouse liver microsomes (MouLM); assay type: in vitro ADME, KM mice; conditions: MouLM, 0 min
# Experimental: as §2
# [3] = Metabolic stability in monkey liver microsomes (MLM); assay type: in vitro ADME, crab-eating monkey; conditions: MLM; for Concentration (ng/mL) of testosterone, Mean: positive control substrate
# Experimental: as §2
# [4] = Metabolic stability in dog liver microsomes (DLM); assay type: in vitro ADME, beagle dog; conditions: DLM; for Concentration (ng/mL) of testosterone, Mean: positive control substrate
# Experimental: as §2
# [5] = Metabolic stability in human liver microsomes (HLM); assay type: in vitro ADME; conditions: HLM; for Concentration (ng/mL) of testosterone, Mean: positive control substrate
# Experimental: as §2
# [6] = system: CYP450 enzymes in human liver microsomes; assay: Metabolic enzyme phenotype of TPB15 in human liver microsomes with selective CYP450 inhibitors; assay type: in vitro ADME; conditions: 90 min
# Experimental: The specific procedure was as follows: a total of 0.5 μL of the substrate TPB15 and 0.5 μL of each specific inhibitor were mixed with 449 μL of human liver microsomes, and the mixture was incubated at 37 °C for 10 min. Subsequently, 50 μL of NADPH with a concentration of 10 mM in PBS were introduced to initiate the reaction. After 90 min, 50 μL of the reaction mixture were transferred to a 150 μL ice-cold methanol solution containing an internal standard to terminate the reaction. The mixture was vortexed for 2 min and then centrifuged at 4 °C at 14,800 rpm for 10 min. A volume of 130 μL of the supernatant was then transferred to a new EP tube, which was centrifuged again at 4 °C at 14,800 rpm for another 10 min. Finally, 5 μL of the supernatant were injected for the determination of substrate TPB15 concentration. Three parallel samples were prepared for each time point. The experiment also included a positive control group and a negative control group. In the positive control group, substrate TPB15 was incubated with human liver microsomes for 90 min without the addition of inhibitors. In the negative control group, the substrate TPB15 was incubated for 90 min without inhibitors, with human liver microsomes replaced by an equal volume of phosphate-buffered saline (PBS). The metabolic rate of TPB15 in human liver microsomes was represented by the elimination rate of the substrate TPB15.
# CYP2C9 = CYP2C9 (Homo sapiens, UniProt P11712); conditions: inhibition of TPB15 metabolism, HLM, 90 min, Sulfaphenazole 20 μM (CYP2C9)
# Experimental: as §1
# CYP2C8 = target: T2, CYP2C8 (Homo sapiens, UniProt P10632); assay: TPB15 metabolism in human liver microsomes with CYP2C8 inhibitor; assay type: in vitro ADME; conditions: inhibition of TPB15 metabolism, HLM, 90 min, Quercetin 20 μM (CYP2C8)
# T2 construct: tissue Jiangsu Kejing Bio-Pharmaceutical Co., Ltd; host or cells: human liver microsomes
# T2 sequence (P10632 1-490): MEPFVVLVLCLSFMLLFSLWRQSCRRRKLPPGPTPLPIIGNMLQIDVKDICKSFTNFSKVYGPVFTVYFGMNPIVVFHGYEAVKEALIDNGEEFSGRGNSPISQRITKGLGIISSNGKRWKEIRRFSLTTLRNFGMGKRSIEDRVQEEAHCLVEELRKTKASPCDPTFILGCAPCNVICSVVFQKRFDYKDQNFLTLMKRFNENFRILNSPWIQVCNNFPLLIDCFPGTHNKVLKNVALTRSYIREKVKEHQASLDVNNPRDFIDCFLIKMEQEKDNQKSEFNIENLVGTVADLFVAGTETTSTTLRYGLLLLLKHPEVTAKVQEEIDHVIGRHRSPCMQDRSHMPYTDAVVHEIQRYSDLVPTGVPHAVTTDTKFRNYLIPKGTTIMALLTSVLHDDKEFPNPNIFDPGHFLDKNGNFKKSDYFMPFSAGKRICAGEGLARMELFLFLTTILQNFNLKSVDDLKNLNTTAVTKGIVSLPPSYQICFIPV
# Experimental: Three parallel samples were prepared for each time point.
# Chain of CYP2C9 (P11712 whole entry): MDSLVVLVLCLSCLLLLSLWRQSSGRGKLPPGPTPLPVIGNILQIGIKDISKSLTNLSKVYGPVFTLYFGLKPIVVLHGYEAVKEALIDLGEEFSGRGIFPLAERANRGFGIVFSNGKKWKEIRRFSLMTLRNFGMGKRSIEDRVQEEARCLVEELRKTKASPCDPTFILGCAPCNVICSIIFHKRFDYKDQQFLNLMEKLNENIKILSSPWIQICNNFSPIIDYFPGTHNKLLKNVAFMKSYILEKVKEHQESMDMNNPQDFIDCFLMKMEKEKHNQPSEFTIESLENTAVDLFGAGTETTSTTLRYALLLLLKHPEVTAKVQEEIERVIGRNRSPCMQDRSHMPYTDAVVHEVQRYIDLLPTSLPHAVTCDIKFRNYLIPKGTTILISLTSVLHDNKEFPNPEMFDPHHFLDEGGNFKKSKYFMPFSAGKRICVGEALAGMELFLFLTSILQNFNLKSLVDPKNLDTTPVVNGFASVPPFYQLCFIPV
compound,measurement,setting,value
O=c1ccc2ccccc2o1 [Coumarin],Inhibitor Rate (%),CYP2A6,6.60%
C[C@]12CC[C@H]3[C@@H](CCC4=CC(=O)CC[C@@]43C)[C@@H]1CC[C@@H]2O [testosterone],"Concentration (ng/mL) of testosterone, single samples (serial number 1-3)",[1]; 0 min,331 ng/mL and 303 ng/mL
same,"Concentration (ng/mL) of testosterone, Mean",[1]; 0 min,321.7 ng/mL
same,"Concentration (ng/mL) of testosterone, Mean",[1]; 90 min,22.6 ng/mL
same,"Concentration (ng/mL) of testosterone, single samples (serial number 1-3)",[2],400 ng/mL and 314 ng/mL and 356 ng/mL
same,"Concentration (ng/mL) of testosterone, Mean",[2]; positive control substrate,356.7 ng/mL
same,"Concentration (ng/mL) of testosterone, single samples (serial number 1-3)",[3]; 0 min,293 ng/mL and 385 ng/mL and 301 ng/mL
same,"Concentration (ng/mL) of testosterone, Mean",[3]; 0 min,326.4 ng/mL
same,"Concentration (ng/mL) of testosterone, single samples (serial number 1-3)",[3]; 90 min,29.2 ng/mL and 39.7 ng/mL and 38.2 ng/mL
same,"Concentration (ng/mL) of testosterone, Mean",[3]; 90 min,35.7 ng/mL
same,"Concentration (ng/mL) of testosterone, single samples (serial number 1-3)",[4]; 0 min,300 ng/mL and 364 ng/mL and 375 ng/mL
same,"Concentration (ng/mL) of testosterone, Mean",[4]; 0 min,346.3 ng/mL
same,"Concentration (ng/mL) of testosterone, Mean",[4]; 90 min,17.5 ng/mL
same,"Concentration (ng/mL) of testosterone, single samples (serial number 1-3)",[5]; 0 min,273 ng/mL and 379 ng/mL and 308 ng/mL
same,"Concentration (ng/mL) of testosterone, Mean",[5]; 0 min,320.0 ng/mL
same,"Concentration (ng/mL) of testosterone, single samples (serial number 1-3)",[5]; 90 min,19.2 ng/mL and 22.9 ng/mL and 34.7 ng/mL
same,"Concentration (ng/mL) of testosterone, Mean",[5]; 90 min,25.6 ng/mL
"Nc1ccc(S(=O)(=O)Nc2ccnn2-c2ccccc2)cc1 [Sulfaphenazole, reference compound]",effect of selective CYP450 inhibitor on TPB15 metabolism (significance vs positive control group),[6],significantly inhibited
same,Inhibitor Rate (%),CYP2C9,81.22%
O=c1c(O)c(-c2ccc(O)c(O)c2)oc2cc(O)cc(O)c12 [Quercetin],Inhibitor Rate (%),CYP2C8,8.63%
